From US8361998B2, “Compounds and their use as IKACh blockers” (AstraZeneca AB, priority 2010, dated 2013)
Read-outs that look alike come from different tables or passages of the source.

Target: T1, human cardiac ion channel proteins hKir3.1/Kir3.4 (Homo sapiens, UniProt P48544+P48549)
T1 construct: expressed in transfected cells
T1 sequence (P48549 1-501): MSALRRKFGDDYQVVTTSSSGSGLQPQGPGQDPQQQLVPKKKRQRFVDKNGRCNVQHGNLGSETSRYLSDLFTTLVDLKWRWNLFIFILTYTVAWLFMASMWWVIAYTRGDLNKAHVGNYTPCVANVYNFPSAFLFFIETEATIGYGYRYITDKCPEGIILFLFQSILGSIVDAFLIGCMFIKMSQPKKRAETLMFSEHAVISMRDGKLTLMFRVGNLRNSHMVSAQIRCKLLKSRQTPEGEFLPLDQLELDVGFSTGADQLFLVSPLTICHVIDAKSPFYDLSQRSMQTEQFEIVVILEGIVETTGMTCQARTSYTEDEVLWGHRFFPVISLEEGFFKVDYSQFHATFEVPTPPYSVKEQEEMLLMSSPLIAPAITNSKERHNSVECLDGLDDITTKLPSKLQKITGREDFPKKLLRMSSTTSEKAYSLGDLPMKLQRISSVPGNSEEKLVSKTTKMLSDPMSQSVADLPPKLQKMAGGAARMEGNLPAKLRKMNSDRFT
T1 sequence (P48544 1-419): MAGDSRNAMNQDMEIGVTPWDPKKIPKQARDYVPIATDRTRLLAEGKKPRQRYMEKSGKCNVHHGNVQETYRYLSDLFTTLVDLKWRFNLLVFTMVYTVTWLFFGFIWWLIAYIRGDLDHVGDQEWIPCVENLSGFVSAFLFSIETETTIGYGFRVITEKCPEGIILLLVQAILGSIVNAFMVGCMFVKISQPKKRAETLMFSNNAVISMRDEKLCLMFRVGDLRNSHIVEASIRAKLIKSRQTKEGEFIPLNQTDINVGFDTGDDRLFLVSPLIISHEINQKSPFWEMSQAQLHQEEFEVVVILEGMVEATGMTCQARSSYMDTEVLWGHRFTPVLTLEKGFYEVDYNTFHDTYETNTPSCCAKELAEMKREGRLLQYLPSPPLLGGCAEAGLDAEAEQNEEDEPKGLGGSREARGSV
Assay: Atomic Absorption Screening (AAS) Rb efflux assay of hKir3.1/Kir3.4 block, carbachol/high K+ stimulated, 10-pt or 7-pt CR
Format: cell-based
How it was run: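 CHO-K1 cells stably co-expressing human Kir3.1/Kir3.4 were Rb-loaded for 3 h at 37° C, preincubated with compound 5 min at RT, then stimulated 10 min with 10 μM carbachol plus 20 mM KCl (final). Supernatant Rb was measured by atomic absorption. Compounds ran at 0.003–67 μmol/L (10-pt) or 0.037–27 μmol/L (7-pt), threefold dilutions; IC50s are means of >4 or >3 replicates respectively.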

[1] = 10-pt CR (0.003 to 67 μmol/L), AAS Rb efflux, CHO-K1 cells expressing hKir3.1/Kir3.4, mean of >4 replicates, read-out: IKACh IC50 10-pt CR, AAS
[2] = 7-pt CR (0.037 to 27 μmol/L), AAS Rb efflux, CHO-K1 cells expressing hKir3.1/Kir3.4, mean of >3 replicates, read-out: IKACh IC50 7-pt CR, AAS
[3] = printed as IC50 >67 μM in the 10-pt CR assay or IC50 >27 μM in the 7-pt CR assay, assay format per compound not stated, read-out: IC50

Row | Structure (SMILES) | IC50 [1] [µM] | IC50 [2] [µM] | IC50 [3] [µM]
1 | Cc1cc(C(=O)N(C)[C@H](CN2CC(F)C2)C(C)C)ccc1F [Example 1.5, (S)-4-Fluoro-N-(1-(3-fluoroazetidin-1-yl)-3-methylbutan-2-yl)-N,3-dimethylbenzamide] | 12 |  | 
2 | CN(C(=O)c1ccc(F)c(F)c1)[C@@H](CN1CC(O)C1)C1CCC1 [Example 35.7, N-[(1R)-1-Cyclobutyl-2-(3-hydroxyazetidin-1-yl)ethyl]-3,4-difluoro-N-methylbenzamide] | 3.9 |  | 
3 | CCCC[C@@H](CN1CC(O)C1)N(C)C(=O)c1ccccc1 [Example 33.5, N-[(2S)-1-(3-Hydroxyazetidin-1-yl)hexan-2-yl]-N-methylbenzamide] | 1 |  | 
4 | Cc1cc(C(=O)N(C)[C@H](CN2CCCC2)[C@@H](C)OC(C)(C)C)ccc1F [Example 14, N-((2R,3R)-3-Tert-butoxy-1-(pyrrolidin-1-yl)butan-2-yl)-4-fluoro-N,3-dimethylbenzamide] | 16 |  | 
5 | CCCC[C@@H](CN1CC(O)C1)N(C)C(=O)c1ccc(O)cc1 [Example 33.6, 4-Hydroxy-N-[(2S)-1-(3-hydroxyazetidin-1-yl)hexan-2-yl]-N-methylbenzamide] | 11 |  | 
6 | CN(C(=O)c1ccc(F)c(F)c1)[C@H](CN1CC(O)C1)C1CCCC1 (single isomer, unassigned) [32.1, isomer 2] | 2.3 |  | 
7 | CCC[C@@H](CN1CC[C@H](O)C1)N(C)C(=O)c1ccc(Cl)cc1 [Example 46.2, 4-Chloro-N—((S)-1-((S)-3-hydroxypyrrolidin-1-yl)pentan-2-yl)-N-methylbenzamide] | 5.5 |  | 
8 | CC(C)[C@H](CN1CCCC1)N(C)C(=O)c1ccc(Br)cc1 [Example 16.57, (R)-4-Bromo-N-methyl-N-(3-methyl-1-(pyrrolidin-1-yl)butan-2-yl)benzamide] | 8.8 | 11 | 
9 | CCCC[C@@H](CN1CC(O)C1)N(C)C(=O)c1ccc(Cl)cc1 [Example 33.1, (S)-4-chloro-N-(1-(3-hydroxyazetidin-1-yl)hexan-2-yl)-N-methylbenzamide] | 0.12 |  | 
10 | Cc1cccc(C(=O)N(C)[C@H](CN2CCCCC2)C(C)C)c1 [Example 16.29, N,3-Dimethyl-N-[(1S)-2-methyl-1-(piperidin-1-ylmethyl)propyl]benzamide] | 9.3 | 8.8 | 
11 | CC(C)[C@@H](CN1CCCCC1)N(C)C(=O)c1ccc(Br)cc1 [Example 16.27, 4-Bromo-N-methyl-N-[(1S)-2-methyl-1-(piperidin-1-ylmethyl)propyl]benzamide] |  | 4 | 
12 | CC(C)[C@@H](CN1CC[C@@H](O)C1)N(C)C(=O)c1ccc(F)c(C(F)(F)F)c1 [Example 17.7, 4-Fluoro-N—((S)-1-((R)-3-hydroxypyrrolidin-1-yl)-3-methylbutan-2-yl)-N-methyl-3-(trifluoromethyl)benzamide] | 3.6 |  | 
13 | CC(C)[C@@H](CN1CCCCC1)N(C)C(=O)c1ccc(Cl)cc1 [Example 16.34, 4-Chloro-N-methyl-N-[(1S)-2-methyl-1-(piperidin-1-ylmethyl)propyl]benzamide] |  | 4.3 | 
14 | CN(C(=O)c1cccc(Cl)c1F)[C@@H](CN1CC(O)C1)C1CCC1 [Example 35.11, 3-Chloro-N-[(1R)-1-cyclobutyl-2-(3-hydroxyazetidin-1-yl)ethyl]-2-fluoro-N-methylbenzamide] | 4.8 |  | 
15 | CC(C)[C@@H](CN1CCCCC1)N(C)C(=O)c1ccc(Cl)cc1F [Example 16.31, 4-Chloro-2-fluoro-N-methyl-N-[(1S)-2-methyl-1-(piperidin-1-ylmethyl)propyl]-benzamide] |  | 2.4 | 
16 | CCC[C@@H](CN1CC(OC(C)C)C1)N(C)C(=O)c1ccc(Cl)cc1 [Example 31.4, 4-chloro-N-methyl-N-{(25)-1-[3-(propan-2-yloxy)azetidin-1-yl]pentan-2-yl}benzamide] | 0.33 |  | 
17 | Cc1cc(C(=O)N(C)[C@H](CN2CCC(C#N)CC2)C(C)C)ccc1F [Example 26, (S)—N-(1-(4-Cyanopiperidin-1-yl)-3-methylbutan-2-yl)-4-fluoro-N,3-dimethylbenzamide] | 7 |  | 

Row | Structure (SMILES) | IC50 [1] [µM] | IC50 [2] [µM] | IC50 [3] [µM]
18 | Cc1cc(C(=O)N(C)[C@H](CN2CCC(F)(F)C2)C(C)C)ccc1F [(S)-N-(1-(3,3-Difluoropyrrolidin-1-yl)-3-methylbutan-2-yl)-4-fluoro-N,3-dimethylbenzamide] |  |  | > 27
19 | CO[C@H](C)[C@@H](CN1CCCC1)N(C)C(=O)c1ccc(F)c(C)c1 [Example 3.1, 4-Fluoro-N-((2R,3R)-3-methoxy-1-(pyrrolidin-1-yl)butan-2-yl)-N,3-dimethylbenzamide] | 7.4 |  | 
20 | COCC1CN(C[C@H](C(C)C)N(C)C(=O)c2ccc(F)c(F)c2)C1 [Example 28, (S)-3,4-Difluoro-N-(1-(3-(methoxymethyl)azetidin-1-yl)-3-methylbutan-2-yl)-N-methylbenzamide] | 19 |  | 
21 | CC(C)[C@H](CN1CCC1)N(C)C(=O)c1ccc(Br)cc1 [(R)-N-(1-(Azetidin-1-yl)-3-methylbutan-2-yl)-4-bromo-N-methylbenzamide] |  |  | > 27
22 | CCCC[C@@H](CN1CC(O)C1)N(C)C(=O)c1ccc(C#N)cc1F [Example 33.3, 4-Cyano-2-fluoro-N-[(2S)-1-(3-hydroxyazetidin-1-yl)hexan-2-yl]-N-methylbenzamide] | 0.84 |  | 
23 | Cc1ccc(C(=O)N(C)[C@H](CN2CCCC(F)(F)C2)C(C)C)cc1C [Example 16.3, (S)—N-(1-(3,3-Difluoropiperidin-1-yl)-3-methylbutan-2-yl)-N,3,4-trimethylbenzamide] | 11 |  | 
24 | COc1cc(Cl)ccc1C(=O)N(C)[C@@H](CC(C)C)CN1CC(O)C1 [Example 38.7, 4-Chloro-N-[(2S)-1-(3-hydroxyazetidin-1-yl)-4-methylpentan-2-yl]-2-methoxy-N-methylbenzamide] | 0.47 |  | 
25 | CCC[C@@H](CN1CC(OCC)C1)N(C)C(=O)c1ccc(Cl)cc1 [Example 31.1, (S)-4-Chloro-N-(1-(3-ethoxyazetidin-1-yl)pentan-2-yl)-N-methylbenzamide] | 0.43 |  | 
26 | CN(C(=O)c1ccc(Br)cc1)[C@H](CN1CCC1)C1CC1 [Example 4.3, (S)-N-(2-(Azetidin-1-yl)-1-cyclopropylethyl)-4-bromo-N-methylbenzamide] | 6.8 |  | 
27 | CN(C(=O)c1ccc(F)cc1Cl)[C@@H](CN1CC(O)C1)C1CCC1 [Example 35.6, 2-Chloro-N-[(1R)-1-cyclobutyl-2-(3-hydroxyazetidin-1-yl)ethyl]-4-fluoro-N-methylbenzamide] | 4.6 |  | 
28 | CC(C)[C@@H](CN1CC(C)(O)C1)N(C)C(=O)c1ccc(Br)cc1 [Example 9.6, (S)-4-Bromo-N-(1-(3-hydroxy-3-methylazetidin-1-yl)-3-methyl-butan-2-yl)-N-methylbenzamide] | 2.8 |  | 
29 | CO[C@H](C)[C@@H](CN1CCCC1)N(C)C(=O)c1ccc(Cl)cc1 [Example 3.5, 4-Chloro-N-((2R,3R)-3-methoxy-1-(pyrrolidin-1-yl)butan-2-yl)-N-methylbenzamide] | 7.2 |  | 
30 | Cc1ccc(C(=O)N(C)[C@H](CN2CC(O)(C3CC3)C2)C2CC2)cc1C [Example 9.5, (S)-N-(1-Cyclopropyl-2-(3-cyclopropyl-3-hydroxyazetidin-1-yl)ethyl)-N,3,4-trimethylbenzamide] | 1.3 |  | 
31 | CC(C)[C@@H](CN1CCCCC1)N(C)C(=O)c1cccc(Cl)c1 [Example 16.37, (S)-3-Chloro-N-methyl-N-(3-methyl-1-(piperidin-1-yl)butan-2-yl)benzamide] | 15 | 14 | 
32 | CCC[C@@H](CN1C[C@@H](O)[C@@H]1C)N(C)C(=O)c1ccc(F)c(F)c1 [3,4-Difluoro-N-((S)-1-((2S,3R)-3-hydroxy-2-methylazetidin-1-yl)pentan-2-yl)-N-methylbenzamide] |  |  | > 27
33 | COc1ccc(C(=O)N(C)[C@H](CN2CC(O)C2)C2CCC2)c(F)c1 [Example 39.5, (S)—N-(1-Cyclobutyl-2-(3-hydroxyazetidin-1-yl)ethyl)-2-fluoro-4-methoxy-N-methylbenzamide] | 1.1 |  | 
34 | COC1CCN(C[C@H](C(C)C)N(C)C(=O)c2ccc(Cl)cc2)CC1 [Example 3.7, (S)-4-Chloro-N-(1-(4-methoxypiperidin-1-yl)-3-methylbutan-2-yl)-N-methylbenzamide] | 1.3 |  | 
